In patent US11771685B2, “Compounds for the treatment of neurological or mitochondrial diseases” (MUSC FOUNDATION FOR RESEARCH DEVELOPMENT, priority 2018, dated 2023):

Experiments:
[1] = tested on: rat brain slices; assay: Rat in vitro spontaneous electrographic bursting model
Experimental: Synthesis for both compounds has been successfully scaled up. The pharmacokinetic (PK) parameters of these two Vitamin K analogs were determined via intravenous, intraperitoneal and oral administration in mice, and preliminary in vitro ADMET parameters were assessed (Table 3). These compounds are Ames-negative, have hepatic stability greater than 1 hour, can be formulated in oral solution and IV injection solution, can be synthesized in greater than 1 mg quantities, and have established brain PK. However, brain tissue binding was high for both compounds (97-98%). Both 3 (NT-181) and 17 (NT-102) have been tested for efficacy in the 6 Hz mouse seizure model at 22 mA and 32 mA, the corneal kindled mouse model, and the rat in vitro spontaneous electrographic bursting model of pharmacoresistance (Table 4). […] Preliminary studies with this new formulation reveal excellent solubility with full protection in the 6 Hz mouse seizure model at 22 mA, and quantification of both compounds (using this new formulation) in this model at 22 mA, 32 mA and 44 mA, is being performed as well as retesting in the corneal kindled model. […] Rat PK assessments will be performed, and seizure protection assessed in rat models in the ADD workflow such as the 6 Hz model and lamotrigine-resistant amygdala kindled mode.

[2] = tested on: Zebrafish larvae; assay: In vivo toxicology in zebrafish larvae
Experimental: Zebrafish larvae, 7 days post-fertilization (dpf), were exposed to compounds at 20, 15, 10, and 5 μM, six larvae per compound. Animals were observed 1, 5, and 24 hr after dosing for overt toxicity (altered survival, morbidity, morphological deformity). Heart rate, behavior, and startle response were monitored at each time point.
Zebrafish (AB strain) were obtained from the Zebrafish International Resource Center (supported by P40 RR012546 from NIH—NCRR). Zebrafish were maintained and crossed according to standard methods (Westerfield, 2000). Fertilized eggs were collected and placed in E3 embryo medium and positioned in an incubator set at 28.5° C. with a 14/10-hr light/dark cycle (Kimmel et al., 1995). To determine the lethal dose of each compound, 96-well plates containing one zebrafish (7 days post-fertilization, dpf) per well in 100 μL of tank water were used. 100 μL of each compound (0.5-15 μM) was added to each well for 12 animals (one row) for a final volume of 200 μL. One row of larvae was used as dimethyl sulfoxide (DMSO)-only controls. […] All zebrafish studies were approved by the Medical University of South Carolina Institutional Animal Care and Use Committee (#180278) and performed in accordance with the guidelines.
Using a 96-well plate, 7 dpf zebrafish were placed one per well with 100 μL of tank water. 100 μL of each compound was then added to each well for 12 animals (one row) for a final volume of 200 μL. One row of zebrafish larvae was used as DMSO only controls.

[3] = tested on: 6 Hz electrically-induced seizures in mice; assay: 6 Hz mouse seizure model; assay type: in vivo; conditions: for Number of Animals Protected / Effective Dose / Time of Peak Effect: 5% DMSO: 95% Neobee; for protection against seizures, preliminary testing: toxicity by Rotarod assay and behavioral observations; for 6 Hz 32 mA N/T, mice protected / 6 Hz 44 mA N/T, mice protected: 1 hr
Experimental: In particular, using (i) electrical model to test for seizures in mice and, separately, (ii) in rat 6 Hz 40V model. More specifically, NT-102 was injected (i.p.) in 5% DMSO/95% Miglyol 840 as vehicle. […] […] The mice were administered the NT-102 at various doses and placed on the rotarod (i.e., “Rotarod (Tox)”) to test if the mice would fall off as a model of due to the effects of NT-102; for the “Rotarod(Tox)” results, the “NIT” indicates the number of mice that fell off the rotarod (e.g., for Rotarod(Tox) results, if N/T is 0/8, then zero out of eight mice fell off). […] […] The 44 mA electrical dosage was used since it is considered to be a model to test for medication-resistant epilepsy.

[4] = tested on: 6 Hz 40 V electrically-induced seizures in rats; assay: Rat 6 Hz 40 V seizure model; assay type: in vivo
Experimental: In particular, using (i) electrical model to test for seizures in mice and, separately, (ii) in rat 6 Hz 40V model. More specifically, NT-102 was injected (i.p.) in 5% DMSO/95% Miglyol 840 as vehicle. Mice were challenged with 6 Hz 44 mA current to see if seizures would result. […] The Time of Peak Effect (TPE) was observed 1 hour. Additional data is shown below in Table 5. The mice were administered the NT-102 at various doses and placed on the rotarod (i.e., “Rotarod (Tox)”) to test if the mice would fall off as a model of due to the effects of NT-102; for the “Rotarod(Tox)” results, the “NIT” indicates the number of mice that fell off the rotarod (e.g., for Rotarod(Tox) results, if N/T is 0/8, then zero out of eight mice fell off). For the electrical stimulation data (i.e., “6 Hz 44 mA”), an electrical stimulation of 6 Hz 44 mA was administered. […] The 44 mA electrical dosage was used since it is considered to be a model to test for medication-resistant epilepsy.
The 6 Hz 40 V electrical stimulation amount was used because this electrical dosage is considered to be a rat model for medication-resistant epilepsy.

CCC#CCNC1=CC(=O)c2ccccc2C1=O [Compound 3, 2-(Pent-2-yn-1-ylamino)naphthalene-1,4-dione]
Number protected ([1]; 5 uM): 0/8 at 5 uM | concentration lethal/toxic at 24 hr ([2]; 7 dpf larvae, 24 hr): above 5 μM | Number of Animals Protected ([3]; 22 mA, 100 mg/kg): 8/8 at 100 mg/kg | Effective Dose ([3]; 22 mA): 80.60 (25-100) mg/kg | Time of Peak Effect ([3]; 22 mA): 0.5 h | Number of Animals Protected ([3]; 32 mA, 100 mg/kg): 0/7 | Number of Animals Protected ([3]; 32 mA, 300 mg/kg): 3/8 | Number of Animals Protected ([3]; 44 mA, 100 mg/kg): 0/8 at 100 mg/kg | protection against seizures, preliminary testing [3]: displayed protection against seizures with few or no toxic events

CC(C)CCNC1=CC(=O)c2ccccc2C1=O [Compound 17, 2-(Isopentylamino)naphthalene-1,4-dione]
Number protected ([1]; 10 uM): 0/9 at 10 uM | 6 Hz 32 mA N/T, mice protected ([3]; 50 mg/kg): 0/8 | 6 Hz 44 mA N/T, mice protected ([3]; 100 mg/kg i.p.): 0/8 | 6 Hz 32 mA N/T, mice protected ([3]; 100 mg/kg): 4/8 | 6 Hz 44 mA N/T, mice protected ([3]; 200 mg/kg i.p.): 2/8 | 6 Hz 32 mA N/T, mice protected ([3]; 200 mg/kg): 3/8 | 6 Hz 44 mA N/T, mice protected ([3]; 300 mg/kg i.p.): 4/8 | 6 Hz 32 mA N/T, mice protected ([3]; 300 mg/kg): 7/8 | 6 Hz 44 mA N/T, mice protected ([3]; 400 mg/kg i.p.): 8/8 | Time of Peak Effect (TPE) ([3]; 6 Hz 44 mA, i.p., 5% DMSO/95% Miglyol 840): 1 h | Number of Animals Protected ([3]; 22 mA, 400 mg/kg): 8/8 at 400 mg/kg | Effective Dose ([3]; 22 mA): 209.05 (25-400) mg/kg | Time of Peak Effect ([3]; 22 mA): 0.25 h | Number of Animals Protected ([3]; 32 mA, 400 mg/kg): 2/8 at 400 mg/kg | ED50 ([3]; Mus musculus, 6 Hz 32 mA): 153 mg/kg | protection against seizures, preliminary testing [3]: displayed protection against seizures with few or no toxic events | 6 Hz 40 V N/T, rats protected ([4]; 200 mg/kg, 1 hr): 1/8 | 6 Hz 40 V N/T, rats protected ([4]; 250 mg/kg, 1 hr): 2/8 | 6 Hz 40 V N/T, rats protected ([4]; 300 mg/kg i.p., 0.25 hr): 3/8 | 6 Hz 40 V N/T, rats protected ([4]; 300 mg/kg i.p., 0.5 hr): 0/8 | 6 Hz 40 V N/T, rats protected ([4]; 300 mg/kg i.p., 1 hr): 5/8 | 6 Hz 40 V N/T, rats protected ([4]; 300 mg/kg i.p., 2 hr): 0/4 | 6 Hz 40 V N/T, rats protected ([4]; 300 mg/kg i.p., 4 hr): 0/4 | 6 Hz 40 V N/T, rats protected ([4]; 350 mg/kg, 1 hr): 6/8 | ED50 ([4]; Rattus norvegicus, 6 Hz 40 V): 293 mg/kg | Time to peak result ([4]; i.p., 6 Hz 40 V): about one

CC(C)CCOC1=CC(=O)c2ccccc2C1=O [Compound 25, 2-(Isopentyloxy)naphthalene-1,4-dione]
survival ([2]; 24 hr, highest concentrations): ⅔ | concentration with no overt toxicity ([2]; AB, zebrafish, in vivo): ≤ 10 µM
